Patent publication US10682359B2, “Inhibitors of glucose kinases, along with methods of their formation and use” (University of South Carolina, priority 2017, dated 2020)
Read-outs that look alike come from different tables or passages of the source.

How the values were obtained:
[1] = system: T. cruzi infective form (amastigotes and trypomastigotes) (Tulahuen strain) in NIH-3T3 fibroblasts; assay: T. cruzi viability assay in NIH-3T3 fibroblasts; conditions: for viability at 80 µM / EC50: Trypanosoma cruzi, TULAHUEN, NIH3T3; for Trypanocidal activity class: class by % viability at 80 μM; for in vitro T. cruzi EC50 compared with benznidazole: infective form co-cultured in NIH-3T3 fibroblasts
[2] = biological target: T1, Trypanosoma cruzi glucokinase (TcGlcK) (Trypanosoma cruzi, UniProt Q4E4E1); assay: TcGlcK-HsΔG6PDH-diaphorase coupled assay, IC50 determination; assay type: biochemical
T1 construct: made in house
T1 sequence (Q4E4E1 1-376): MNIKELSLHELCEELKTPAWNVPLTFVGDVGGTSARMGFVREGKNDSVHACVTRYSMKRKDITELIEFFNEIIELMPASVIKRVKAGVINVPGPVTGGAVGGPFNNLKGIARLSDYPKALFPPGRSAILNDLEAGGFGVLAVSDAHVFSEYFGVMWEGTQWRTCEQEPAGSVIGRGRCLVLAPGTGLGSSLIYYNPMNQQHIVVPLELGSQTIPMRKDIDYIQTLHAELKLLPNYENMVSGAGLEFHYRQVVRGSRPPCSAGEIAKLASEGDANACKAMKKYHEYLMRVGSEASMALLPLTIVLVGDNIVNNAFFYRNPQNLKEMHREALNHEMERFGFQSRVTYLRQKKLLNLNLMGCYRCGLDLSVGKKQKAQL
Protocol: The TcGlcK assay was performed through its linking with the HsΔG6PDH-diaphorase enzyme-coupled assay system as schematically illustrated in FIG. 1. All of the compounds were tested in quadruplicate using the JANUS-MDT liquid handler equipped with a 384-tip head that was used to transfer 22 μL of a reagent mix [130 U/mL HsΔG6PDH, 100 mM NADP+, 1 kU/mL diaphorase, 10 mM resazurin, and 19 μM TcGlcK in a reaction buffer (see below)], 0.5 μL of 1 mM compounds in 100% DMSO (from the daughter plate, see above), and 2.5 μL of a substrate mix [4 mM D-glucose and 6 mM ATP in a reaction buffer] to a 384-well plate (total volume per well was 25 μL). The reaction buffer was 0.1 M triethanolamine (pH 8.5), 8.0 mM MgCl2, and 0.01% (v/v) Triton X-100. The final assay concentrations (FACs) were 0.5 U/mL HsΔG6PDH, 100 μM NADP+, 1 U/mL diaphorase, 20 μM resazurin, 2.5 nM TcGlcK, 20 μM compounds (from the daughter plate, see above), 0.4 mM D-glucose, 0.6 mM ATP, 0.1 M triethanolamine (pH 8.5), 8 mM MgCl2, and 0.01% (v/v) Triton X-100. […] The assay was carried out using 384-well, black, v-bottom microplates (Greiner Bio-One) with a final volume of 25 μL per well. Pipetting steps were performed with a liquid handler having a 384-tip head, JANUS-MDT from Perkin Elmer (Waltham, Mass.). Compounds that gave rise to TcGlcK enzyme activity in the presence of 20 μM compound (EA20) that results in less than 65%) were categorized as unconfirmed hits to proceed as candidates. The methodology is schematically illustrated in FIG. 2.
Determination of the IC50 values was performed by the TcGlcK—HsΔG6PDH—diaphorase coupled assay, in which reaction velocities were obtained at various concentrations of inhibitors. In 96-well plates, solutions of the inhibitors were prepared by serial dilution. Briefly, column 1 served as a control having an inhibitor concentration of zero; however, columns 2 through 12 on a given row had 11 different inhibitor concentrations from a serial dilution. Using the JANUS-MDT liquid handler with a 96-tip head, assay reactions were carried out in quadruplicate in a 384-well plate and the following components were transferred per well: 44 μL of a reagent mix [130 U/mL HsΔG6PDH, 100 mM NADP^+, 1 kU/mL diaphorase, 10 mM resazurin, and 19 μM TcGlcK in a reaction buffer (0.1 M triethanolamine (pH 8.5), 8.0 mM MgCl2, and 0.01% (v/v) Triton X-100)], 1 uL of 1 mM compound solutions in 100% DMSO, and 5 μL of a substrate mix [4 mM D-glucose and 6 mM ATP in the same reaction buffer]. The Envision microplate reader (PerkinElmer) was used to monitor the formation of resorufin in the fluorescence mode (λex=530 nm; λem=615 nm). Reaction velocities were measured and normalized by the controls. Values of IC50 were calculated using the GraphPad Prism 6.0 software from nonlinear regression of the data.

[3] = TcGlcK - inhibitor IC50, enzymatic coupled assay, read-out: IC50

| Structure (SMILES) | viability at 80 µM [1] | also measured |
| --- | --- | --- |
| O=S(=O)(Nc1ccc(O)cc1)c1cc(Cl)ccc1Cl [Compound 1m] | 0.6 ± 2.9% | – |
| COc1ccc(S(=O)(=O)Nc2cccc(SC)c2)cc1F [Compound 1b] | 0% | – |
| CN1C(=O)C(=Cc2ccc(N(C)C)cc2)C(=O)N(C)C1=O [Compound 2c] | 79 ± 4% | IC50 [2]: 5.5 µM |
| COc1cc(S(=O)(=O)Nc2cccc(Cl)c2C)c(C)cc1C [Compound 1c] | 0% | – |
| Cc1cc2c(c(O)c1-c1c(C)cc3c(c1O)/C(=C/Nc1cccc4c(N)cccc14)C(=O)C(O)=C3C(C)C)/C(=C/Nc1cccc3c(N)cccc13)C(=O)C(O)=C2C(C)C [Compound 6b] | 1.7 ± 2.7% | IC50 [2, 3]: 16.5 µM |
| COc1ccc(S(=O)(=O)Nc2ccccc2)cc1F [Compound 1l] | 34.6 ± 4.3% | – |
| N#Cc1ccc(-c2cccnc2)nc1SCC(=O)O [Compound 11] | 86.5 ± 0.9% | – |
| CCOc1ccc(S(=O)(=O)Nc2cccc(Cl)c2C)cc1C [Compound 1j] | 0% | – |
| CCOc1ccc([C@@H]2Oc3c(Cl)cc(Cl)cc3C=C2[N+](=O)[O-])cc1OCC [Compound 4a] | 0% | IC50 [2, 3]: 4.8 µM; EC50 [1]: 2.98 ± 0.227 µM; Trypanocidal activity class [1]: active; in vitro T. cruzi EC50 compared with benznidazole [1]: very similar in vitro T. cruzi EC50 values to that of benznidazole |
| O=C1NC(=O)C(=Cc2ccc(Br)s2)C(=O)N1 [Compound 2f] | 74.2 ± 5.3% | IC50 [2]: 2.4 µM |
| c1ccc([C@@H]2CCCN2)nc1 [Compound 7] | 84.3 ± 0.5% | – |
| COc1ccc(S(=O)(=O)Nc2ccc(F)c(F)c2)cc1I [Compound 1e] | 0% | – |
| Cc1ccc(-n2nc(C)c3c2OC(N)=C(C#N)[C@H]3c2ccoc2)cc1 [Compound 5c] | 80.6 ± 3.9% | – |
| Cc1cc(N2CCOCC2)ccc1/C=C1/C(=O)NC(=O)N(c2ccc3c(c2)OCO3)C1=O [Compound 2b] | 57 ± 2.8% | IC50 [2]: 1.1 µM |
| O=C1NC(=O)C(=Cc2ccc3c(c2)OCO3)C(=O)N1 [Compound 2h] | 81.2 ± 13.7% | IC50 [2]: 8.7 µM |
| COc1ccc(S(=O)(=O)Nc2cc(Cl)ccc2Cl)c(C)c1C [Compound 1k] | 0% | – |
| CCOc1ccc([C@@H]2Oc3ccc(Br)cc3C=C2[N+](=O)[O-])cc1OC [Compound 4b] | 0% | IC50 [2, 3]: 6.5 µM; EC50 [1]: 2.17 ± 0.045 µM; Trypanocidal activity class [1]: active; in vitro T. cruzi EC50 compared with benznidazole [1]: very similar in vitro T. cruzi EC50 values to that of benznidazole |
| CCOc1ccc(S(=O)(=O)Nc2c(F)cccc2F)cc1Cl [Compound 1i] | 4.9 ± 4.7% | – |
| COc1ccc(Br)cc1/C=C1/C(=O)NC(=O)N(CCC2=CCCCC2)C1=O [Compound 2d] | 88.7 ± 15.1% | IC50 [2]: 13.7 µM |
| O=C1C(=Cc2ccco2)C(=O)N(c2ccccc2)C(=O)N1c1ccccc1 [Compound 2a] | 66.5 ± 22.3% | IC50 [2]: 0.6 µM |

| Structure (SMILES) | viability at 80 µM [1] | also measured |
| --- | --- | --- |
| COc1ccc(Br)cc1[C@H]1C(C#N)=C(N)Oc2c1c(C)nn2-c1ccccc1 [Compound 5a] | 0% | IC50 [2, 3]: 18.8 µM |
| Cc1cc2c(c(O)c1-c1c(C)cc3c(c1O)/C(=C/Nc1ccc(Cc4ccc(N)cc4)cc1)C(=O)C(O)=C3C(C)C)/C(=C/Nc1ccc(Cc3ccc(N)cc3)cc1)C(=O)C(O)=C2C(C)C [Compound 6d] | 63.3 ± 0.4% | IC50 [2, 3]: 61.6 µM |
| Nc1c(C(=O)c2cccc([N+](=O)O)c2)sc2nc(-c3cccnc3)ccc12 [Compound 9] | 52.7 ± 7.9% | – |
| COc1ccc(NS(=O)(=O)c2ccc(Cl)c(C)c2Cl)cc1 [Compound 1d] | 0% | – |
| O=C1NC(=O)C(=Cc2ccc(O)c(O)c2)C(=O)N1 [Compound 2g] | 62.8 ± 11.6% | IC50 [2]: 4.2 µM |
| Cc1cc2c(c(O)c1-c1c(C)cc3c(c1O)C(=CNc1ccc(S(=O)(=O)NC(=N)N)cc1)C(=O)C(O)=C3C(C)C)C(=CNc1ccc(S(=O)(=O)NC(=N)N)cc1)C(=O)C(O)=C2C(C)C [Compound 6a] | 0% | IC50 [2, 3]: 13.2 µM; EC50 [1]: 8.62 ± 0.493 µM; Trypanocidal activity class [1]: active |
| COc1ccc(F)cc1S(=O)(=O)Nc1ccc(Cl)cc1 [Compound 1n] | 2.4 ± 7.4% | – |
| Cc1cc2c(c(O)c1-c1c(C)cc3c(c1O)/C(=C/Nc1c(O)cc(S(=O)(=O)O)c4ccccc14)C(=O)C(O)=C3C(C)C)/C(=C/Nc1c(O)ccc3c(S(=O)(=O)O)cccc13)C(=O)C(O)=C2C(C)C [Compound 6c] | 20.4 ± 10.3% | IC50 [2, 3]: 30.2 µM |
| COc1ccc([C@@H]2Oc3ccccc3C=C2[N+](=O)[O-])cc1OC [Compound 4c] | 0% | IC50 [2, 3]: 53.2 µM |
| COc1ccc(C(=O)Nc2sc3c(c2C(N)=O)CCCCC3)cc1OC [Compound 10] | 50.5 ± 3.4% | – |
| O=C(O)C1Nc2c(I)cccc2C2C=CCC12 (stereo not drawn) [Compound 8] | 44.3 ± 5.1% | – |
| COc1ccc(S(=O)(=O)Nc2ccc(Br)cc2F)cc1Cl [Compound 1g] | 0% | – |
| CCOc1cc(S(=O)(=O)Nc2ccc(Cl)cc2)ccc1F [Compound 1h] | 0% | – |
| COc1ccc(S(=O)(=O)Nc2cccc(Br)c2)c(Cl)c1Cl [Compound 1a] | 0% | IC50 [2, 3]: 7.2 µM; EC50 [1]: 13.3 ± 0.3 µM; Trypanocidal activity class [1]: active |
| CCOc1ccc([C@@H]2Oc3ccccc3C=C2[N+](=O)[O-])cc1OCC [Compound 4d] | 0% | IC50 [2, 3]: 69.1 µM |
| O=C1NC(=O)C(=Cc2ccc(N3CCOCC3)cc2)C(=O)N1 [Compound 2e] | 88 ± 9.4% | IC50 [2]: 1.7 µM |
| O=[N+]([O-])C1=Cc2c(ccc3ccccc23)O[C@H]1c1ccc2c(c1)OCO2 [Compound 4e] | 0% | – |
| Cc1nn(-c2cccc(Cl)c2)c2c1[C@@H](c1cc([N+](=O)[O-])ccc1Cl)C(C#N)=C(N)O2 [Compound 5d] | 0% | – |
| COc1ccc(S(=O)(=O)Nc2ccc3ccccc3c2)cc1Cl [Compound 1f] | 0% | – |
| Cc1nn(-c2ccccc2)c2c1[C@@H](c1ccc(F)cc1)C(C#N)=C(N)O2 [Compound 5b] | 87.1 ± 3.3% | IC50 [2, 3]: 17.1 µM |
